ChEMBL document CHEMBL1143689, “Synthesis and biological evaluation of 3-aryl-3-(4-phenoxy)-propionic acid as a novel series of G protein-coupled receptor 40 agonists” (J Med Chem, 2007)

Columns and labels:
[1] = molecular target: Free fatty acid receptor 1 (Homo sapiens) (UniProt O14842); assay: Agonist activity at human GPR40 expressed in HEK293 cells assessed as effect on calcium flux; assay type: functional, cell-based
[2] = molecular target: Free fatty acid receptor 1 (Homo sapiens) (UniProt O14842); assay: Agonist activity at human GPR40 expressed in HEK293 cells assessed as calcium flux response relative to linoleic acid; assay type: functional, cell-based; parameters: concentration or dose not given beside the values
[3] = molecular target: Free fatty acid receptor 1 (Mus musculus) (UniProt Q76JU9); assay: Agonist activity at GPR40 in mouse MIN6 cells assessed as stimulation of 25 mM glucose-mediated insulin secretion at 30 uM; assay type: functional, cell-based
Sequence of Free fatty acid receptor 1 (Mus musculus) (Q76JU9 whole entry): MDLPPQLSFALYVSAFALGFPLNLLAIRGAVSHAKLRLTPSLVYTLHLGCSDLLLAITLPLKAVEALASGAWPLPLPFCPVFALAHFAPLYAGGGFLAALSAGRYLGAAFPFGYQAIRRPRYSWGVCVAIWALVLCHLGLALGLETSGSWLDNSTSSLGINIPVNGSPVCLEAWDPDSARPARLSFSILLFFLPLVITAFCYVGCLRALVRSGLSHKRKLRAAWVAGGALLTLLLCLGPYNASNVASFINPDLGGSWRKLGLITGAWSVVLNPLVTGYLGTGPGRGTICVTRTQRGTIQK

[4] = molecular target: Free fatty acid receptor 1 (Mus musculus) (UniProt Q76JU9); assay: Agonist activity at GPR40 in mouse MIN6 cells assessed as stimulation of 5 mM glucose-mediated insulin secretion at 30 uM; assay type: functional, cell-based
[5] = molecular target: Free fatty acid receptor 1 (Mus musculus, UniProt Q76JU9); assay: Agonist activity at GPR40 in mouse MIN6 cells assessed as stimulation of 25 mM glucose-mediated insulin secretion; assay type: functional, cell-based
Sequence of Free fatty acid receptor 1 (Q76JU9 whole entry): as above

[6] = molecular target: T1, Cytochrome P450 1A2 (Homo sapiens, UniProt P05177); assay: Inhibition of human CYP1A2; assay type: ADME
T1 sequence (P05177 whole entry): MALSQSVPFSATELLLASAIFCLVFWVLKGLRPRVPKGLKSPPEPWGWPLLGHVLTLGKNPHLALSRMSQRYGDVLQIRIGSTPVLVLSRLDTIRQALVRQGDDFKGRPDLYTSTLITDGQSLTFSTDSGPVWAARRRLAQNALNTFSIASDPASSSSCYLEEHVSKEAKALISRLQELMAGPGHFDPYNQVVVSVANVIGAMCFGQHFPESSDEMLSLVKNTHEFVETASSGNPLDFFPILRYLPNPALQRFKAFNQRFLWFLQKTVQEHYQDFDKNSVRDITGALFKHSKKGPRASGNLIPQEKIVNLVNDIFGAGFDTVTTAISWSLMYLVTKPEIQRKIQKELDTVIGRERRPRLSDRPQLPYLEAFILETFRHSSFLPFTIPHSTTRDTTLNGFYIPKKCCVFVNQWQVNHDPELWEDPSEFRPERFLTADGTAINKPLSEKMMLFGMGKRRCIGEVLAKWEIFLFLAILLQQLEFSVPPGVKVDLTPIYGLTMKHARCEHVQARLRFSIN

[7] = molecular target: Cytochrome P450 2C9 (Homo sapiens, UniProt P11712); assay: Inhibition of human CYP2C9; assay type: ADME
Sequence of Cytochrome P450 2C9 (P11712 whole entry): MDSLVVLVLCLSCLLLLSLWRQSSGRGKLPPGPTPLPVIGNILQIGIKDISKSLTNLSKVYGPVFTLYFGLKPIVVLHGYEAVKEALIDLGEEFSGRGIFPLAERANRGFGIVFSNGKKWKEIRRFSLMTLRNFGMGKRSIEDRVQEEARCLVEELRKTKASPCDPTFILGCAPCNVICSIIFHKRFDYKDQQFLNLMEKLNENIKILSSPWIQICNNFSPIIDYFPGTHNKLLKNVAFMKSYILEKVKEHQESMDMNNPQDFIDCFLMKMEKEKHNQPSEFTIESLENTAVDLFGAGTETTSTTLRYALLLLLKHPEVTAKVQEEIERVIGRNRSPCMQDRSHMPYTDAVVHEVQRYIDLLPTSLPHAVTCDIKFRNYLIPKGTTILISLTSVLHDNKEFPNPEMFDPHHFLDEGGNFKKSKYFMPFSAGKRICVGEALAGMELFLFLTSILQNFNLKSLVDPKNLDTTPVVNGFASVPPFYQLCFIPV

[8] = molecular target: Cytochrome P450 2C19 (Homo sapiens, UniProt P33261); assay: Inhibition of human CYP2C19; assay type: ADME
Sequence of Cytochrome P450 2C19 (P33261 whole entry): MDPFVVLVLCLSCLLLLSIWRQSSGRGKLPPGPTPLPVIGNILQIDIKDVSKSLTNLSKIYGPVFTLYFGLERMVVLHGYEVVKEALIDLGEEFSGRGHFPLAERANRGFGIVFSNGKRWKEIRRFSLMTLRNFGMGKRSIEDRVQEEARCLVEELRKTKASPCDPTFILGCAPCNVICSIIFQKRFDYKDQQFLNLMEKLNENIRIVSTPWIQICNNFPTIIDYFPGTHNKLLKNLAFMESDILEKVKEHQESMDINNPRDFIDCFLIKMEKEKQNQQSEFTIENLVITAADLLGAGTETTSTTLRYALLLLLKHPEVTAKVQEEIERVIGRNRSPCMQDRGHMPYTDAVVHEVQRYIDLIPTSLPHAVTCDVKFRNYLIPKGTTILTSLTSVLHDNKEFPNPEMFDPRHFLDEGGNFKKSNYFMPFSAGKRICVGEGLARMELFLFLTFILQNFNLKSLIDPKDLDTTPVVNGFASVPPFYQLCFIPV

[9] = molecular target: Cytochrome P450 2D6 (Homo sapiens, UniProt P10635); assay: Inhibition of human CYP2D6; assay type: ADME
Sequence of Cytochrome P450 2D6 (P10635 whole entry): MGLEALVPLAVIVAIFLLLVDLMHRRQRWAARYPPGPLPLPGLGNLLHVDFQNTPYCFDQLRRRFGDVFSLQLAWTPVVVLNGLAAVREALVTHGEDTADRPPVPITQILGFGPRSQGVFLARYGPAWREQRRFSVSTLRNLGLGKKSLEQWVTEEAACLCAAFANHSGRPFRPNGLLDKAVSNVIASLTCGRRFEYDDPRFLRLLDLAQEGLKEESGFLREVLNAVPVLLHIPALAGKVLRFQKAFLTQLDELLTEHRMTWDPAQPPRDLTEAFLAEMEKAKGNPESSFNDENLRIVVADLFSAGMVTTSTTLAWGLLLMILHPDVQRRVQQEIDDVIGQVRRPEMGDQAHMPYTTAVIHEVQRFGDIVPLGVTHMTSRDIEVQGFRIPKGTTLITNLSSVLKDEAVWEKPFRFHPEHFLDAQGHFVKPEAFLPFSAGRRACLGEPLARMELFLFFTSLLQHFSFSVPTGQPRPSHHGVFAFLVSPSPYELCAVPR

[10] = molecular target: Cytochrome P450 3A4 (Homo sapiens, UniProt P08684); assay: Inhibition of human CYP3A4; assay type: ADME
Sequence of Cytochrome P450 3A4 (P08684 whole entry): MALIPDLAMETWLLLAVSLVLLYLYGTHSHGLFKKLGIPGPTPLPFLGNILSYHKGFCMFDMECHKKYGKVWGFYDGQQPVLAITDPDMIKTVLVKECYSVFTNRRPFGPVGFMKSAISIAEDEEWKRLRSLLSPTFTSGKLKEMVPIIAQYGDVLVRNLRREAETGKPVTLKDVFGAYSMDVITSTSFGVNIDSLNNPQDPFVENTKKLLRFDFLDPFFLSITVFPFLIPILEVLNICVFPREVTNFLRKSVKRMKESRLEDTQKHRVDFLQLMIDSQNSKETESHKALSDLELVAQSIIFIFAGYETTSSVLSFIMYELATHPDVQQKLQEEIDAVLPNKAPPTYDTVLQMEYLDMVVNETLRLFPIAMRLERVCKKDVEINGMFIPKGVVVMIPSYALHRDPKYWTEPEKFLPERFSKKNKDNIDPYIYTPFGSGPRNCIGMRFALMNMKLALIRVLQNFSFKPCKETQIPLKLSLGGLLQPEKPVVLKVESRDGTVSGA

[11] = Cmax in rat at 2 mg/kg, iv; assay type: ADME, organism-based; parameters: dose 2 mg/kg, route intravenous; conditions: in vivo
[12] = Cmax in rat at 10 mg/kg, po; assay type: ADME, organism-based; parameters: dose 10 mg/kg, route oral; conditions: in vivo
[13] = Tmax in rat at 2 mg/kg, iv; assay type: ADME, organism-based; parameters: dose 2 mg/kg, route intravenous; conditions: in vivo
[14] = Tmax in rat at 10 mg/kg, po; assay type: ADME, organism-based; parameters: dose 10 mg/kg, route oral; conditions: in vivo
[15] = AUC in rat at 2 mg/kg, iv; assay type: ADME, organism-based; parameters: dose 2 mg/kg, route intravenous; conditions: plasma
[16] = AUC in rat at 10 mg/kg, po; assay type: ADME, organism-based; parameters: dose 10 mg/kg, route oral; conditions: plasma
[17] = Half life in rat at 2 mg/kg, iv; assay type: ADME, organism-based; parameters: dose 2 mg/kg, route intravenous; conditions: in vivo
[18] = Half life in rat at 10 mg/kg, po; assay type: ADME, organism-based; parameters: dose 10 mg/kg, route oral; conditions: in vivo
[19] = Clearance in rat at 2 mg/kg, iv; assay type: ADME, organism-based; parameters: dose 2 mg/kg, route intravenous; conditions: in vivo
[20] = Oral bioavailability in rat at 10 mg/kg, po; assay type: ADME, organism-based; conditions: in vivo

Sequence of Free fatty acid receptor 1 (Homo sapiens) (O14842 whole entry): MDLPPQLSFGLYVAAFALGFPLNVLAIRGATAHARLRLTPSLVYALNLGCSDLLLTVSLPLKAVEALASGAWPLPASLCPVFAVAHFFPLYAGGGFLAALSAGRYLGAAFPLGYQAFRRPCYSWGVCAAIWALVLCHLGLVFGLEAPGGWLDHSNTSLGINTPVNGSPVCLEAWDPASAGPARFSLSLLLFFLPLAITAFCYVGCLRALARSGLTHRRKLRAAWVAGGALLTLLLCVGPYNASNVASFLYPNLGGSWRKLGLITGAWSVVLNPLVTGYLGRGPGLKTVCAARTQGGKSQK

SMILES | ED50 [1] [µM] | Activity [2] [%] | also measured
C=C(C)CCOc1ccc(C(CC(=O)O)c2ccccc2)cc1 (stereo not drawn) | 2.71 | 81 | –
CCCCCOc1ccc(C(CC(=O)O)c2ccccc2)cc1 (stereo not drawn) | 2.97 | 60 | Activity [3]: 122%
CCCCC/C=C\C/C=C\CCCCCCCC(=O)O | – | – | Activity [3]: 172%; Activity [4]: 141%
CC(C)CCOc1ccc(C(CC(=O)O)c2ccccc2)cc1 (stereo not drawn) | 1.86 | 77 | –
CCC(CC)COc1ccc(C(CC(=O)O)c2ccccc2)cc1 (stereo not drawn) | 0.64 | 96 | Activity [3]: 155%; EC50 [5]: 2.2 µM
CCCOc1ccc(C(CC(=O)O)c2ccccc2)cc1 (stereo not drawn) | 4.8 | 68 | –
CCCCOc1ccc(C(CC(=O)O)c2cccc(F)c2)cc1 (stereo not drawn) | 1.44 | 81 | –
CC[C@@H](C)COc1ccc(C(CC(=O)O)c2ccccc2)cc1 (stereo in doubt; 22(B,R)) | 0.71 | 98 | –
CCCCCCOc1ccc(C(CC(=O)O)c2ccccc2)cc1 (stereo not drawn) | 2.88 | 68 | Activity [3]: 137%
C/C=C/COc1ccc(C(CC(=O)O)c2ccccc2)cc1 (stereo not drawn) | 2.71 | 75 | –
CCCCOc1ccc(C(CCCC(=O)O)c2ccccc2)cc1 (stereo not drawn) | > 10 | 3 | –
CC[C@@H](C)COc1ccc(C(CC(=O)O)c2ccccc2)cc1 (stereo in doubt; 22(A,R)) | > 10 | 3 | –
CCCCOc1ccc(C(CC(=O)O)c2cccc(C(F)(F)F)c2)cc1 (stereo not drawn) | 2.84 | 75 | –
CC[C@H](C)COc1ccc(C(CC(=O)O)c2ccccc2)cc1 (stereo in doubt; 22(B,S)) | 0.56 | 94 | –
COCCCOc1ccc(C(CC(=O)O)c2ccccc2)cc1 (stereo not drawn) | 7.58 | 43 | –
O=C(O)CC(c1ccccc1)c1ccc(OCCCC(F)(F)F)cc1 (stereo not drawn) | 3.16 | 72 | –
CCCCCOc1cccc(C(CC(=O)O)c2ccccc2)c1 (stereo not drawn) | > 10 | 6 | –
CC[C@H](C)COc1ccc(C(CC(=O)O)c2ccccc2)cc1 (stereo in doubt; 22(A,S)) | > 10 | 2 | –
CCCCOc1ccc(C(CC(=O)O)c2cccs2)cc1 (stereo not drawn) | 1.29 | 79 | Activity [3]: 171%
CCCCCCCOc1ccc(C(CC(=O)O)c2ccccc2)cc1 (stereo not drawn) | 4.26 | 70 | –
CCCCOc1ccc(C(CC(=O)O)c2ccc(C(F)(F)F)cc2)cc1 (stereo not drawn) | > 10 | 3 | –
CCCCOc1ccc(C(CC(=O)O)c2ccccc2)cc1 (stereo not drawn) | 1.2 | 72 | –
CCCCOc1ccc(C(CC(=O)O)c2ccccc2O)cc1 (stereo not drawn) | 4.8 | 66 | –
CCC(C)COc1ccc(C(CC(=O)O)c2ccccc2)cc1 (stereo not drawn) | 0.3 | 98 | IC50 [6]: > 22 µM; IC50 [7]: > 22 µM; IC50 [8]: > 22 µM; IC50 [9]: > 22 µM; IC50 [10]: > 22 µM; Cmax [11]: 5780 ng/mL; Cmax [12]: 4760 ng/mL; Tmax [13]: 4.8 min; Tmax [14]: 0.5 h; AUC [15]: 2480 ng·h/mL; AUC [16]: 10700 ng·h/mL; half-life [17]: 4.78 h; half-life [18]: 6.33 h; clearance [19]: 13.8 mL/min/kg; bioavailability [20]: 87%
